Experimental data from PubChem BioAssay (NCI).
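Interpolation was linear, between the two tested concentrations surrounding the appropriate level; five concentrations were tested over 48 hours in 96-well plates. Definition used: TGI = concentration required for complete inhibition of growth.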

What was measured:
Test in all cases: growth of human tumour cells (NCI), 48 h
786-0 renal = system: 786-0 renal
ACHN renal = system: ACHN renal
COLO 205 colon = system: COLO 205 colon
HT29 colon = system: HT29 colon
IGROV1 ovarian = system: IGROV1 ovarian
LOX IMVI melanoma = system: LOX IMVI melanoma
MOLT-4 leukemia = system: MOLT-4 leukemia
OVCAR-4 ovarian = system: OVCAR-4 ovarian
OVCAR-8 ovarian = system: OVCAR-8 ovarian
SF-268 CNS = system: SF-268 CNS
SNB-75 CNS = system: SNB-75 CNS
SR leukemia = system: SR leukemia
UACC-257 melanoma = system: UACC-257 melanoma
UACC-62 melanoma = system: UACC-62 melanoma
KM12 colon = system: KM12 colon
SK-MEL-2 melanoma = system: SK-MEL-2 melanoma
NCI/ADR-RES ovarian = system: NCI/ADR-RES ovarian

For `O=C(Nc1c(O)[nH]c(=S)[nH]c1=O)c1ccc2ccccc2n1`, the TGI (786-0 renal) was > 100 µM, the TGI (ACHN renal) was > 100 µM and the TGI (COLO 205 colon) was > 100 µM. For the same compound, the TGI (HT29 colon) was > 100 µM, the TGI (IGROV1 ovarian) was > 100 µM and the TGI (LOX IMVI melanoma) was > 100 µM. For the same compound, the TGI (MOLT-4 leukemia) was > 100 µM, the TGI (OVCAR-4 ovarian) was > 100 µM and the TGI (OVCAR-8 ovarian) was > 100 µM. For the same compound, the TGI (SF-268 CNS) was > 100 µM, the TGI (SNB-75 CNS) was > 100 µM and the TGI (SR leukemia) was > 100 µM. For the same compound, the TGI (UACC-257 melanoma) was > 100 µM and the TGI (UACC-62 melanoma) was > 100 µM.
With `CCOC(=O)/C(=C/c1ccc(C#N)cc1)N(CC)CC` the TGI (786-0 renal) was > 100 µM, the TGI (ACHN renal) was > 100 µM and the TGI (COLO 205 colon) was > 100 µM. The TGI (HT29 colon) was > 100 µM, the TGI (IGROV1 ovarian) was > 100 µM and the TGI (KM12 colon) was > 100 µM. For the same compound, the TGI (LOX IMVI melanoma) was > 100 µM, the TGI (MOLT-4 leukemia) was > 100 µM and the TGI (OVCAR-4 ovarian) was > 100 µM. The TGI (OVCAR-8 ovarian) was > 100 µM, the TGI (SF-268 CNS) was > 100 µM and the TGI (SK-MEL-2 melanoma) was > 100 µM. The TGI (SNB-75 CNS) was > 100 µM, the TGI (SR leukemia) was > 100 µM and the TGI (UACC-257 melanoma) was > 100 µM. For the same compound, the TGI (UACC-62 melanoma) was > 100 µM.
With `COC(=O)[C@]1(C)CCC[C@@]2(C)C1CCC1=CC3(C(C)C)CCC12OO3` (some centres not stated) the TGI (786-0 renal) was > 100 µM, the TGI (ACHN renal) was > 100 µM and the TGI (COLO 205 colon) was > 100 µM. The TGI (HT29 colon) was > 100 µM, the TGI (IGROV1 ovarian) was > 100 µM and the TGI (KM12 colon) was > 100 µM. The TGI (LOX IMVI melanoma) was > 100 µM, the TGI (MOLT-4 leukemia) was > 100 µM and the TGI (OVCAR-4 ovarian) was > 100 µM. For the same compound, the TGI (OVCAR-8 ovarian) was > 100 µM, the TGI (SF-268 CNS) was > 100 µM and the TGI (SK-MEL-2 melanoma) was > 100 µM. The TGI (SR leukemia) was > 100 µM, the TGI (UACC-257 melanoma) was > 100 µM and the TGI (UACC-62 melanoma) was > 100 µM.
For `CCCCCCCC/C=C\CCCCCCCC(=O)NCCN(CCN)C(=O)CCCCCCC/C=C\CCCCCCCC`, the TGI (786-0 renal) was > 100 µM, the TGI (ACHN renal) was > 100 µM and the TGI (COLO 205 colon) was > 100 µM. For the same compound, the TGI (HT29 colon) was > 100 µM, the TGI (IGROV1 ovarian) was > 100 µM and the TGI (LOX IMVI melanoma) was > 100 µM. For the same compound, the TGI (MOLT-4 leukemia) was > 100 µM, the TGI (OVCAR-4 ovarian) was > 100 µM and the TGI (OVCAR-8 ovarian) was > 100 µM. The TGI (SF-268 CNS) was > 100 µM, the TGI (SR leukemia) was > 100 µM and the TGI (UACC-257 melanoma) was > 100 µM. The TGI (UACC-62 melanoma) was > 100 µM.
With `COc1ccc([C@H]2CC(=O)NCCCCN2)cc1` the TGI (786-0 renal) was > 100 µM, the TGI (ACHN renal) was > 100 µM and the TGI (COLO 205 colon) was > 100 µM. The TGI (HT29 colon) was > 100 µM, the TGI (IGROV1 ovarian) was > 100 µM and the TGI (KM12 colon) was > 100 µM. The TGI (MOLT-4 leukemia) was > 100 µM, the TGI (OVCAR-4 ovarian) was > 100 µM and the TGI (OVCAR-8 ovarian) was > 100 µM. For the same compound, the TGI (SF-268 CNS) was > 100 µM, the TGI (SK-MEL-2 melanoma) was > 100 µM and the TGI (SNB-75 CNS) was > 100 µM. The TGI (SR leukemia) was > 100 µM, the TGI (UACC-257 melanoma) was > 100 µM and the TGI (UACC-62 melanoma) was > 100 µM.
`Cc1ccc(Cl)c(NC(=O)C(=O)C(C(=O)c2ccncc2)C2OC(=O)c3ccccc32)c1` (configuration not stated) was tested, and the TGI (786-0 renal) was > 100 µM, the TGI (ACHN renal) was > 100 µM and the TGI (COLO 205 colon) was > 100 µM. The TGI (HT29 colon) was > 100 µM, the TGI (IGROV1 ovarian) was > 100 µM and the TGI (LOX IMVI melanoma) was > 100 µM. The TGI (OVCAR-4 ovarian) was > 100 µM, the TGI (OVCAR-8 ovarian) was > 100 µM and the TGI (SF-268 CNS) was > 100 µM. The TGI (SNB-75 CNS) was > 100 µM, the TGI (SR leukemia) was > 100 µM and the TGI (UACC-257 melanoma) was > 100 µM. For the same compound, the TGI (UACC-62 melanoma) was > 100 µM.
In the case of `COC(=O)C(Cl)=C1CC1`, the TGI (786-0 renal) is reported as 65.4 µM, the TGI (ACHN renal) is reported as 49.2 µM and the TGI (COLO 205 colon) is reported as 38.3 µM. The TGI (HT29 colon) was > 100 µM, the TGI (IGROV1 ovarian) was > 100 µM and the TGI (KM12 colon) was > 100 µM. The TGI (LOX IMVI melanoma) was 59.6 µM, the TGI (MOLT-4 leukemia) was 53.4 µM and the TGI (OVCAR-4 ovarian) was > 100 µM. For the same compound, the TGI (OVCAR-8 ovarian) was 97.9 µM, the TGI (SF-268 CNS) was > 100 µM and the TGI (SK-MEL-2 melanoma) was > 100 µM. For the same compound, the TGI (SNB-75 CNS) was > 100 µM, the TGI (UACC-257 melanoma) was > 100 µM and the TGI (UACC-62 melanoma) was > 100 µM.
In the case of `O=C(OCC1OC(c2nn[nH]n2)C(OC(=O)c2ccccc2)C1OC(=O)c1ccccc1)c1ccccc1` (configuration not stated), the TGI (786-0 renal) is reported as > 100 µM, the TGI (ACHN renal) is reported as > 100 µM and the TGI (COLO 205 colon) is reported as > 100 µM. For the same compound, the TGI (HT29 colon) was > 100 µM, the TGI (KM12 colon) was > 100 µM and the TGI (LOX IMVI melanoma) was > 100 µM. For the same compound, the TGI (MOLT-4 leukemia) was > 100 µM, the TGI (NCI/ADR-RES ovarian) was > 100 µM and the TGI (OVCAR-4 ovarian) was > 100 µM. The TGI (OVCAR-8 ovarian) was > 100 µM, the TGI (SF-268 CNS) was > 100 µM and the TGI (SK-MEL-2 melanoma) was > 100 µM. The TGI (SNB-75 CNS) was > 100 µM, the TGI (UACC-257 melanoma) was > 100 µM and the TGI (UACC-62 melanoma) was > 100 µM.
`COc1ccc2c(c1)OC[C@@H]1c3cc4c(cc3O[C@H]21)OCO4` was tested, and the TGI (786-0 renal) was > 100 µM, the TGI (ACHN renal) was > 100 µM and the TGI (COLO 205 colon) was > 100 µM. For the same compound, the TGI (HT29 colon) was > 100 µM, the TGI (KM12 colon) was > 100 µM and the TGI (LOX IMVI melanoma) was > 100 µM. The TGI (MOLT-4 leukemia) was > 100 µM, the TGI (OVCAR-4 ovarian) was > 100 µM and the TGI (OVCAR-8 ovarian) was > 100 µM. For the same compound, the TGI (SF-268 CNS) was > 100 µM, the TGI (SK-MEL-2 melanoma) was > 100 µM and the TGI (SNB-75 CNS) was 69.2 µM.
With `CC(C)OP(=O)(OC(C)C)C(=Nc1ccccc1)NNc1ccc([N+](=O)[O-])cc1` the TGI (786-0 renal) was 83.3 µM, the TGI (ACHN renal) was 92.5 µM and the TGI (COLO 205 colon) was 51.5 µM. For the same compound, the TGI (KM12 colon) was 43.6 µM, the TGI (LOX IMVI melanoma) was > 100 µM and the TGI (MOLT-4 leukemia) was 41.9 µM. The TGI (OVCAR-4 ovarian) was > 100 µM, the TGI (OVCAR-8 ovarian) was > 100 µM and the TGI (SF-268 CNS) was > 100 µM. The TGI (SK-MEL-2 melanoma) was > 100 µM, the TGI (SNB-75 CNS) was > 100 µM and the TGI (SR leukemia) was 43.4 µM. The TGI (UACC-257 melanoma) was > 100 µM and the TGI (UACC-62 melanoma) was 29.1 µM.
For `N#Cc1cc([N+](=O)[O-])ccc1NC(=O)C(=O)C(C(=O)/C=C/c1ccccc1)C1OC(=O)c2ccccc21` (configuration not stated), the TGI (786-0 renal) was > 100 µM, the TGI (ACHN renal) was > 100 µM and the TGI (COLO 205 colon) was > 100 µM. For the same compound, the TGI (HT29 colon) was > 100 µM, the TGI (IGROV1 ovarian) was > 100 µM and the TGI (KM12 colon) was > 100 µM. The TGI (LOX IMVI melanoma) was > 100 µM, the TGI (OVCAR-4 ovarian) was > 100 µM and the TGI (OVCAR-8 ovarian) was > 100 µM. For the same compound, the TGI (SF-268 CNS) was > 100 µM, the TGI (SNB-75 CNS) was > 100 µM and the TGI (SR leukemia) was > 100 µM. The TGI (UACC-257 melanoma) was > 100 µM and the TGI (UACC-62 melanoma) was > 100 µM.
For `COP1(=O)Oc2ccccc2C(=O)C(C(F)(F)F)(C(F)(F)F)O1` (configuration not stated), the TGI (786-0 renal) was > 100 µM, the TGI (ACHN renal) was > 100 µM and the TGI (COLO 205 colon) was > 100 µM. For the same compound, the TGI (HT29 colon) was > 100 µM, the TGI (IGROV1 ovarian) was > 100 µM and the TGI (KM12 colon) was > 100 µM. For the same compound, the TGI (LOX IMVI melanoma) was > 100 µM, the TGI (MOLT-4 leukemia) was > 100 µM and the TGI (OVCAR-4 ovarian) was > 100 µM. The TGI (OVCAR-8 ovarian) was > 100 µM, the TGI (SF-268 CNS) was > 100 µM and the TGI (SK-MEL-2 melanoma) was > 100 µM. The TGI (SNB-75 CNS) was > 100 µM, the TGI (SR leukemia) was > 100 µM and the TGI (UACC-257 melanoma) was > 100 µM. The TGI (UACC-62 melanoma) was > 100 µM.
With `c1cncc(-c2ncc3cccnc3n2)c1` the TGI (786-0 renal) was > 100 µM, the TGI (ACHN renal) was > 100 µM and the TGI (COLO 205 colon) was > 100 µM. The TGI (HT29 colon) was > 100 µM, the TGI (IGROV1 ovarian) was > 100 µM and the TGI (KM12 colon) was > 100 µM. For the same compound, the TGI (LOX IMVI melanoma) was > 100 µM, the TGI (MOLT-4 leukemia) was > 100 µM and the TGI (NCI/ADR-RES ovarian) was > 100 µM. The TGI (OVCAR-4 ovarian) was > 100 µM, the TGI (OVCAR-8 ovarian) was > 100 µM and the TGI (SK-MEL-2 melanoma) was > 100 µM. For the same compound, the TGI (SNB-75 CNS) was > 100 µM, the TGI (UACC-257 melanoma) was > 100 µM and the TGI (UACC-62 melanoma) was > 100 µM.
